Assay results published in patent US20080280953A1, “Agents Used for the Treatment of Seeds” (Bayer Cropscience AG, priority 2004, published 2008).
“And” between values parts separate entries of the source, which are not always exact repeats. Equal entries are not always repeated.

Key:
Assay type in all cases: in vivo
[1] = tested on: white fly (Bemisia tabaci, resistant strain); experiment: Bemisia tabaci test (resistant strain), cotton leaf dip; details: 1000 ppm
Description: (§1) To prepare a suitable active compound preparation 1 part by weight of the active compound is mixed with the given amount of solvent and emulsifier and the concentrate is diluted to the desired concentration with water containing emulsifier.
Leaf sections of the cotton plant (Gossypium hirsutum) are treated by dipping in the active compound preparation at the desired concentration and after drying of the coating are infected with adults of the white fly (Bemisia tabaci, resistant strain).
(§2) After the desired time the death rate in % is determined. Here 100% means that all animals were killed; 0% means that no animals were killed.

[2] = tested on: leafminer fly (Liriomyza trifolii) larvae; experiment: Liriomyza trifolii test, spraying of kidney bean plants; details: 100 ppm, spray on kidney bean plants
Description: as §1
Kidney bean plants (Phaseolus vulgaris) that are infected with the larvae of the leafminer fly (Liriomyza trifolii) are treated by spraying with the active compound mixture at the desired concentration.
After the desired time the activity in % is determined.

[3] = tested on: mixed thrips population (Frankliniella occidentalis); experiment: Frankliniella occidentalis test, spraying of cotton plants; details: 100 ppm, spray on cotton plants
Description: as §1
Cotton plants (Gossypium hirsutum) are treated by spraying with the active compound preparation at the desired concentration and infected with a mixed thrips population (Frankliniella occidentalis).
After the desired time the activity in % is determined. Here 100% means that all thrips were killed; 0% means that no thrips were killed.

[4] = tested on: larvae of the Colorado beetle (Leptinotarsa decemlineata); experiment: Leptinotarsa decemlineata larvae test, spraying of potato leaves; details: 60 g ai/ha, spray on potato leaves
Description: as §1
Leaves of potato plants (Solanum tuberosum) that are infested with the larvae of the Colorado beetle (Leptinotarsa decemlineata) are treated by spraying with the active compound preparation at the desired concentration.
After the desired time the activity in % is determined. Here 100% means that all beetle larvae were killed; 0% means that no beetle larvae were killed.

[5] = tested on: black bean aphid (Aphis fabae); experiment: Aphis fabae test (seed application), Example J; details: 90 g ai/unit (100,000 seeds), sugar beet seed treatment
Description: (§3) To prepare a suitable active compound preparation 1 part by weight of the active compound is mixed with the given amount of solvent and emulsifier and the concentrate is diluted to the desired concentration with water.
Sugar beet seed (Beta vulgaris) is treated with the active compound preparation and sown into soil. After ca. 4 week the beet plants are infected with the black bean aphid (Aphis fabae).
(§4) After the desired time the death rate in % is determined. Here 100% means that all aphids were killed; 0% means that no aphids were killed.

[6] = tested on: adult Ctenocephalides felis, strain "Georgi"; experiment: Test with cat fleas/oral administration; details: 100 ppm in citrated bovine blood
Description: To prepare a suitable formulation a suitable active compound solution was prepared from 10 mg active compound with 0.5 ml DMSO. 10 μl of this formulation was added to 2 ml citrated bovine blood and stirred.
20 fasting adult fleas (Ctenocephalides felis, strain “Georgi”) were placed in a chamber (Ø5 cm) that is closed with cheese cloth at the top and bottom. A metal cylinder the underside of which is closed with Parafilm is placed on the chamber. The cylinder contains the 2 ml blood-active compound formulation which can be consumed by the fleas through the Parafilm membrane.
Whilst the blood is warmed to 37° C. the region of the flea chamber is at room temperature. Controls were carried out with the same volume of DMSO without compound addition.
After the desired time the death rate in % is determined. Here 100% means that all fleas were killed; 0% means that no fleas were killed.

[7] = tested on: Lucilia cuprina larvae; experiment: Fly larvae test; details: 100 ppm
Description: 10 mg active compound were dissolved in 0.5 ml dimethylsulphoxide. To prepare a suitable formulation the active compound solution is diluted with water to the respective desired concentration.
About 20 Lucilia cuprina larvae are placed in a test tube that contains ca. 1 cm^3 horse flesh and 0.5 ml of the active compound preparation under test.
After the desired time the death rate in % is determined. Here 100% means that all larvae were killed; 0% means that no larvae were killed.

[8] = tested on: adult Musca domestica, strain WHO(N), sensitive; experiment: Test with flies; details: 100 ppm; after 48 hours
Description: 10 mg of the active compound are dissolved in 0.5 ml dimethylsulphoxide, lower concentrations are prepared by dilution with water.
0.2 ml of this active compound preparation is pipetted onto a sponge (ca. Ø1.5 cm) that has been wetted with 0.8 ml sugar solution. The sponge and 10 test animals are transferred to a dish (4×4 cm, h 2 cm) and covered.
After 48 hours the activity of the active compound preparation is determined. Here 100% means that all flies were killed; 0% means that no flies were killed.

[9] = tested on: horse chestnut scale (Pulvinaria regalis); experiment: Pulvinaria regalis test, spraying of chestnut trees (Example B1); details: 100 ppm, spray on chestnut trees
Description: as §1
Chestnut trees (Castaney vesca) that are infested with horse chestnut scale (Pulvinaria regalis) are treated by spraying with the active compound preparation at the desired concentration.
as §2

[10] = tested on: horse chestnut scale (Pulvinaria regalis); experiment: Pulvinaria regalis test, preparation poured onto chestnut trees (Example C1); details: 10 mg per plant, poured on
Description: as §3
The active compound preparation was poured onto chestnut trees (Castanea vesca). The concentration given relates to the amount of active compound per plant. After a defined time infection was carried out with horse chestnut scale (Pulvinaria regalis).
as §2

[11] = tested on: adults of the green stink bug (Piezodorus guildingi); experiment: Piezodorus guildingi test, open land (spray treatment); details: 300 g/ha, soy bean plants
Description: (§5) To prepare a suitable active compound preparation 1 part by weight of the active compound is mixed with the given amount of water to the desired concentration.
Soy bean plants (Glycine max) infested with the adults of the green stink bug (Piezodorus guildingi) are treated with an active compound preparation at the desired concentration.
After the desired time the death rate in % is determined. Here 100% means that all bugs were killed; 0% means that no bugs were killed.

[12] = tested on: brown plant hopper (Nilaparvata lugens); experiment: Nilaparvata lugens test, open land (spray treatment); details: 300 g/ha, spray on rice plants
Description: as §5
Rice plants (Oryza sativa) that are infested with all stages of the brown plant hopper (Nilaparvata lugens) are sprayed with an active compound preparation at the desired concentration.
After the desired time the death rate in % is determined. Here 100% means that all plant hoppers were killed; 0% means that no plant hoppers were killed.

[13] = tested on: mealy cabbage aphid (Brevicoryne brassicae); experiment: Brevicoryne brassicae test, open land (spray treatment), Example M1; details: 300 g/ha, spray on cabbage plants
Description: as §5
Cabbage plants (Brassica oleracea) that are infested with all stages of the mealy cabbage aphid (Brevicoryne brassicae) are sprayed with an active compound preparation at the desired concentration.
After the desired time the death rate in % is determined. Here 100% means that all nymphs were killed; 0% means that no nymphs were killed.

[14] = tested on: black bean aphid (Aphis fabae); experiment: Aphis fabae test (seed application), Example D1; details: 90 g per unit (100,000 seeds), sugar beet seed
Description: as §3
Sugar beet seed (Beta vulgaris) is treated with the active compound preparation and sown into the earth. After ca. 4 weeks the beet plants are infected with the black bean aphid (Aphis fabae).
as §4

SMILES	Death rate in % after 3 d [1] [%]	Activity in % after 7 d [2]	Activity in % after 14 d [3] [%]	Activity in % after 6 d [4] [%]	Activity in % after 7 d [5] [%]	death rate after 2 days [6] [%]	death rate after 2 days [7] [%]	activity [8] [%]	death rate after 30 days [9] [%]	death rate after 30 days [10] [%]	death rate after 11 days [11] [%]	death rate after 14 days [12] [%]	death rate after 28 days [13] [%]	death rate after 7 days [14] [%]
CN(Cc1ccc(Cl)nc1)C1=CC(=O)OC1 [Compound 84]	78	55% and 46%	99	100	100	100	100	80	100	100	100	91	96	–
O=C1C=C(N(Cc2ccc(Cl)nc2)C2CC2)CO1 [Compound 88]	–	–	99	100	–	–	100	–	95	–	–	99	99	100
